# Laboratory results as given in ChEMBL document CHEMBL4190403, “Design, synthesis, and biological evaluation of pyrazole derivatives containing acetamide bond as potential BRAFV600E inhibitors” (Bioorg Med Chem Lett, 2018).
# Key:
# [1] = molecular target: Serine/threonine-protein kinase B-raf (Mus musculus, UniProt P28028, V600E); experiment: Inhibition of full-length GST-tagged mouse BRAF V600E mutant using recombinant human full length N-terminal His-tagged MEK1 as substrate preincubated for 1 hr followed by substrate addition measured after 25 mins by Nu-page gel-based phosphor screen analysis
# HT-29 = experiment: Antiproliferative activity against human HT-29 cells harboring BRAF V600E mutant after 24 hrs by MTT assay; assay type: functional, cell-based; conditions: HT-29, 24 h
# A-375 = experiment: Antiproliferative activity against human A375 cells harboring BRAF V600E mutant after 24 hrs by MTT assay; assay type: functional, cell-based; conditions: A-375, 24 h
# [2] = Antiproliferative activity against human WM1361 cells harboring wild-type BRAF after 48 hrs by MTT assay; assay type: functional, cell-based; conditions: WM1361, 48 h
# Chain of Serine/threonine-protein kinase B-raf (P28028 whole entry, looked up, stated change not applied): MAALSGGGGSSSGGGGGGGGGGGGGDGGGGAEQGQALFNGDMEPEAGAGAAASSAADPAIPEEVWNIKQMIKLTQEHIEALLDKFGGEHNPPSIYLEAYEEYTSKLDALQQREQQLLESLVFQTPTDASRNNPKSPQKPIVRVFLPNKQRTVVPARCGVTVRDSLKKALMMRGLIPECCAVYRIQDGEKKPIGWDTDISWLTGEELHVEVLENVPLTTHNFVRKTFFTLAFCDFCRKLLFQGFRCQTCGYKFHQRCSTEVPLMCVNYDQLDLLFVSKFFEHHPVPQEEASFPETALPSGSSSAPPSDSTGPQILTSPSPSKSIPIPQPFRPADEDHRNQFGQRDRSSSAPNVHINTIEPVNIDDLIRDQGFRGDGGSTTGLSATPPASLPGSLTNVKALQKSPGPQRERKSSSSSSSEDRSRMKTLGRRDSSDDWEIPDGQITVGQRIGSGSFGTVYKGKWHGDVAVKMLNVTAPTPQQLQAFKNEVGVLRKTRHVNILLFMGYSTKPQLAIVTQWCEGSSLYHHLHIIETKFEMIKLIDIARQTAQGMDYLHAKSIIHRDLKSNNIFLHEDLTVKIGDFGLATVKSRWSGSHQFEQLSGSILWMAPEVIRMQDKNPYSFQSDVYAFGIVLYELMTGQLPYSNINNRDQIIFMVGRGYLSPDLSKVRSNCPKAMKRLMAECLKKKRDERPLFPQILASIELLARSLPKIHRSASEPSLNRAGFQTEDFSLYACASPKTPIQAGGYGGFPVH
IC50 [1] [nM],IC50 (HT-29) [µM],IC50 (A-375) [µM],SMILES,IC50 [2] [µM]
500,8.43,10.4,COc1ccc(CC(=O)Nc2cnn(Cc3ccccc3)c2)cc1OC,18.8
410,9.33,4.57,COc1ccc(-n2cc(NC(=O)Cc3ccc(OC)c(OC)c3)cn2)cc1,17.6
3860,26.8,23.3,CCn1cc(NC(=O)Cn2ccc(-c3ccccn3)n2)cn1,29.8
550,12.7,19.8,O=C(Cn1ccc(-c2ccccn2)n1)Nc1cnn(Cc2ccccc2)c1,28
340,5.7,3.26,O=C(Cn1ccc(-c2cccc(Cl)c2)n1)Nc1cnn(Cc2ccccc2)c1,14.9
260,6.16,3.08,COc1cccc(-n2cc(NC(=O)Cn3ccc(-c4ccccn4)n3)cn2)c1,15.7
1280,12.7,19.8,COc1ccc(-n2cc(NC(=O)Cn3ccc4ccccc43)cn2)cc1,24.8
1960,12.3,17.6,O=C(Cn1ccc2ccccc21)Nc1cnn(Cc2ccccc2)c1,26.8
450,8.73,2.74,COc1ccc(CC(=O)Nc2cnn(-c3ccc(C)cc3)c2)cc1OC,16.6
4660,35.1,28.9,Cn1cc(NC(=O)Cn2ccc3ccccc32)cn1,36.5
1670,22.6,16.8,Cn1cc(NC(=O)Cn2ccc(-c3cccc(Cl)c3)n2)cn1,27.9
1190,12.9,19.4,CCn1cc(NC(=O)Cn2ccc(-c3cccc(Cl)c3)n2)cn1,26.5
360,7.98,3.49,COc1cccc(-n2cc(NC(=O)Cc3ccc(OC)c(OC)c3)cn2)c1,24
1820,49.9,27.2,CCn1cc(NC(=O)Cn2ccc3ccccc32)cn1,47.8
2540,25.4,23.7,Cn1cc(NC(=O)Cn2ccc(-c3ccccn3)n2)cn1,31.9
1230,26.6,24.2,O=C(Cn1ccc2ccccc21)Nc1cnn(-c2ccccc2)c1,25.8
730,11.5,16.2,COc1ccc(CC(=O)Nc2cnn(-c3ccccc3)c2)cc1OC,25.6
3660,25.6,17.9,CCn1cc(NC(=O)Cc2ccc(OC)c(OC)c2)cn1,31.4
2340,24.1,24.5,Cc1ccc(-n2cc(NC(=O)Cn3ccc4ccccc43)cn2)cc1,27.4
4430,32.8,18.6,COc1ccc(CC(=O)Nc2cnn(C)c2)cc1OC,40.3
530,10.8,10.6,O=C(Cn1ccc(-c2ccccn2)n1)Nc1cnn(-c2ccccc2)c1,20.7
480,11.1,11.2,COc1ccc(-n2cc(NC(=O)Cn3ccc(-c4ccccn4)n3)cn2)cc1,24.4
460,10.1,5.67,COc1cccc(-n2cc(NC(=O)Cn3ccc4ccccc43)cn2)c1,16.5
